Legend:
CYP1A2 = target: T1, CYP1A2 (Homo sapiens, UniProt P05177); experiment: CYP1A2 inhibition, probe/drug metabolism in human liver microsomes (LC-MS/MS); details: for Residual activity (%) CYP1A2: HLM 0.5 mg/mL
T1 sequence (P05177 1-516): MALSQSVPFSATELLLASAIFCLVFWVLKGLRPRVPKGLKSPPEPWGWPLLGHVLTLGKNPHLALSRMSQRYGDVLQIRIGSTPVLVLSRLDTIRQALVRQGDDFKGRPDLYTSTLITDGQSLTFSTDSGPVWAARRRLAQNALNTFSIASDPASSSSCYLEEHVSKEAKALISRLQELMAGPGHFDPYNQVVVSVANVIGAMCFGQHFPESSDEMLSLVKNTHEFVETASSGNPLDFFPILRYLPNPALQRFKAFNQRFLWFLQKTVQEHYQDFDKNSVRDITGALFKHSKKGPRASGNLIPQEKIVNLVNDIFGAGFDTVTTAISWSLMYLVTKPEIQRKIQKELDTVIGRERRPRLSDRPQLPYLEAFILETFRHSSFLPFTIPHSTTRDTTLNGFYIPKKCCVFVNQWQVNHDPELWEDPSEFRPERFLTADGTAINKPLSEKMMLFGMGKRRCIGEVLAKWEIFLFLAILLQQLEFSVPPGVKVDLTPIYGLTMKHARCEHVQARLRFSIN
Method: (§1) The total volume of the in vitro metabolic incubation system is 200 μL. The probe substrate concentration in the system is shown in Supplementary Table S1. […] The reaction sample was preheated in a constant temperature mixer at 37°C. Then NADP^+ was added to the system to initiate the reaction. The reaction time is 30 min, and 100 μL acetonitrile will be added on time to quickly terminate the reaction, followed by centrifugation at 4°C and 20,000 g for 20 min. The supernatant was analyzed using liquid chromatography tandem mass spectrometry (LC-MS/MS), and the activity of CYP enzymes was evaluated by the generation of probe metabolites. The mass spectrometry information of probe substrates is shown in Supplementary Table S3.
(§2) The isolated triterpenoids (1–66) were used to establish a compounds library. The inhibitory effects of 66 triterpenoids from G. lucidum on seven subtypes of CYP enzymes (CYP1A2, 2A6, 2D6, 2B6, 2C9, 2C19, 3A4) were evaluated followed the above-mentioned experimental procedures.
(§3) For 16 clinical drugs metabolized by CYP enzymes, potential DDI studies were conducted on triterpenoids (6, 25) of G. lucidum, and IC50 values were measured.
(§4) Clinical drugs: Phenacetin, melatonin, clozapine and riluzole are metabolized by CYP1A2. Bupropion, artemisinin, efavirenz and sertraline are metabolized by CYP2B6. Diclofenac, valsartan, glimepiride and glibenclamide are metabolized by CYP2C9. Midazolam, imatinib, simvastatin and diltiazem are metabolized by CYP3A4.
(§5) Table S1. The information of probes for CYPs activity assay
(§6) Table S2. Information of clinical drugs

CYP2B6 = target: T2, CYP2B6 (Homo sapiens, UniProt P20813); experiment: CYP2B6 inhibition, probe/drug metabolism in human liver microsomes; details: bupropion 75 μM, 30 min; for activity at 30 min: human, human liver microsomes, pH 7.4, probe bupropion 75 μM, Residual activity (%) CYP2B6, HLM 0.5 mg/mL
T2 sequence (P20813 1-491): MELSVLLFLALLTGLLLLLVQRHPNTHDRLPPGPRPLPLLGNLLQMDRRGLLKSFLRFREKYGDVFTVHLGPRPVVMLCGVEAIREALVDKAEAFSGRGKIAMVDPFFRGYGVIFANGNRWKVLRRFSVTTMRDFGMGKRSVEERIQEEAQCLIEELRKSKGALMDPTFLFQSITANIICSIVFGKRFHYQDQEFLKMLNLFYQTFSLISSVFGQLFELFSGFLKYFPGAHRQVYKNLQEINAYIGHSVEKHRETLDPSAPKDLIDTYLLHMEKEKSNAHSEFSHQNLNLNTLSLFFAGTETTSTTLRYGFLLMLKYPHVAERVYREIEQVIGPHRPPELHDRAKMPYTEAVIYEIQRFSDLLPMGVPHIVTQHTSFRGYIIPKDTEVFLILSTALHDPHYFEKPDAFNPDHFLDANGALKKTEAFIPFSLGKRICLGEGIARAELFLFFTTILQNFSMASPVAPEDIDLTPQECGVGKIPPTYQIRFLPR
Method: as §1, §2, §3, §4, §5, §6

CYP2C19 = CYP2C19 (Homo sapiens, UniProt P33261); experiment: CYP2C19 inhibition, S-mephenytoin probe in human liver microsomes; details: S-mephenytoin 50 μM, 30 min; for activity at 30 min: human, human liver microsomes, pH 7.4, probe S-mephenytoin 50 μM, Residual activity (%) CYP2C19, HLM 0.5 mg/mL
Method: as §1, §2, §5

CYP2C9 = CYP2C9 (Homo sapiens, UniProt P11712); experiment: CYP2C9 inhibition, probe/drug metabolism in human liver microsomes; details: diclofenac 4 μM, 30 min; for activity at 30 min: human, human liver microsomes, pH 7.4, probe diclofenac 4 μM, Residual activity (%) CYP2C9, HLM 0.5 mg/mL
Method: as §1, §2, §3, §4, §5, §6

CYP2A6 = target: T3, CYP2A6 (Homo sapiens, UniProt P11509); experiment: CYP2A6 inhibition, coumarin probe in human liver microsomes; details: for activity at 30 min: human, human liver microsomes, pH 7.4, probe coumarin 2 μM, Residual activity (%) CYP2A6, HLM 0.5 mg/mL
T3 sequence (P11509 1-494): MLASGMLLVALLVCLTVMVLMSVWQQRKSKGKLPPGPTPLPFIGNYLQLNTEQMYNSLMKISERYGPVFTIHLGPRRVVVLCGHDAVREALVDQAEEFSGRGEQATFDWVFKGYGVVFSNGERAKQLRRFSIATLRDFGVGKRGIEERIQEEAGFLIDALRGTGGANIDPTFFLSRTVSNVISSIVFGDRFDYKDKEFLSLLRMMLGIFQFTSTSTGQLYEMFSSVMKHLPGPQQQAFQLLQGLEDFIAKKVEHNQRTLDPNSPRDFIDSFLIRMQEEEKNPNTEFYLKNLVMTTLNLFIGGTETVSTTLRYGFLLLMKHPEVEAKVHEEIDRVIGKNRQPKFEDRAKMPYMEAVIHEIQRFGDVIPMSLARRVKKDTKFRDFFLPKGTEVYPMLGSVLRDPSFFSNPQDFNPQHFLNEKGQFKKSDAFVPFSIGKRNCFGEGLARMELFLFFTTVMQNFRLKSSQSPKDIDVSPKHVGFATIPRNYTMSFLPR
Method: as §1, §2, §5

CYP2D6 = CYP2D6 (Homo sapiens, UniProt P10635); experiment: CYP2D6 inhibition, dextromethorphan probe in human liver microsomes; details: for Residual activity (%) CYP2D6: HLM 0.5 mg/mL, dextromethorphan 5 μM, 30 min
Method: as §1, §2, §5

in vivo = details: rat
Method: SD rats (Male, weighing 220 g ± 20 g) were divided into a dichloromethane administration group and a control group with 6 rats in each group. Both groups were given probe substrate drugs by gavage. […] 200 μL blood samples were taken from the rat jugular vein at 0.167, 0.333, 0.5, 0.75, 1, 2, 3, 4, 6, 8, 10, and 12 h after the administration of the probe substrate. After precipitation of proteins by with 600 μL acetonitrile via centrifugation […] at 4°C at 3,500 rpm for 10 min. The supernatant was detected using liquid chromatography-tandem mass spectrometry (LC-MS/MS). The mass spectrometry information of the probe drug is shown in Supplementary Table S3. Animal experiments in this study were approved by the Animal Ethics Committee of the Dalian Medical University.

[1] = gavage, drug alone (control group), n = 6

Chain of CYP2C9 (P11712 whole entry): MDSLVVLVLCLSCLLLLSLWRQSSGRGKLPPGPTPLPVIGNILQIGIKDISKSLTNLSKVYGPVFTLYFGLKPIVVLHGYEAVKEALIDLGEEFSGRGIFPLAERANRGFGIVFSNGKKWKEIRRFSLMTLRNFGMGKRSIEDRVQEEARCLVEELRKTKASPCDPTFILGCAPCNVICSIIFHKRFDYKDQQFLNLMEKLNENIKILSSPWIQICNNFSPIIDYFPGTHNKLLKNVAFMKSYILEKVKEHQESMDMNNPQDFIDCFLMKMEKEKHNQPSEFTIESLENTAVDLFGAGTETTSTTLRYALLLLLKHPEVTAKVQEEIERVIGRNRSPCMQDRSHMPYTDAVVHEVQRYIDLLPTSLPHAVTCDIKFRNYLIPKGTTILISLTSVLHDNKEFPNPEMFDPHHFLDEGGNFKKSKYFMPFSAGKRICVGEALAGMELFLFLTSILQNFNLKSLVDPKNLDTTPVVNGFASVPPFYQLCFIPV
Chain of CYP2D6 (P10635 whole entry): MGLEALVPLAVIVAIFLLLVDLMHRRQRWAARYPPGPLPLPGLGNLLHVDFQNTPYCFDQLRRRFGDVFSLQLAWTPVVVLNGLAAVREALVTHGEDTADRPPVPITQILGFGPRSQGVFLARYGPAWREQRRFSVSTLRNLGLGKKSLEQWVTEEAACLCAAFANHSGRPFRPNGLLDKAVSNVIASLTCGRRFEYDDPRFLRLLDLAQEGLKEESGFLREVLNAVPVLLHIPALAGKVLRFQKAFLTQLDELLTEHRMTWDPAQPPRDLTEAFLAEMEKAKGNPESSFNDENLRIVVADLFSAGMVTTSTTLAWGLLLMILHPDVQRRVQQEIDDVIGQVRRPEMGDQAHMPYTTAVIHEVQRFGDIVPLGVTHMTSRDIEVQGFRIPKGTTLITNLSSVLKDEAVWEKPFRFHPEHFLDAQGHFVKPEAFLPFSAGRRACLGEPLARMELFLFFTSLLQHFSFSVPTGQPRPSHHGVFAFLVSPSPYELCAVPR
Chain of CYP2C19 (P33261 whole entry): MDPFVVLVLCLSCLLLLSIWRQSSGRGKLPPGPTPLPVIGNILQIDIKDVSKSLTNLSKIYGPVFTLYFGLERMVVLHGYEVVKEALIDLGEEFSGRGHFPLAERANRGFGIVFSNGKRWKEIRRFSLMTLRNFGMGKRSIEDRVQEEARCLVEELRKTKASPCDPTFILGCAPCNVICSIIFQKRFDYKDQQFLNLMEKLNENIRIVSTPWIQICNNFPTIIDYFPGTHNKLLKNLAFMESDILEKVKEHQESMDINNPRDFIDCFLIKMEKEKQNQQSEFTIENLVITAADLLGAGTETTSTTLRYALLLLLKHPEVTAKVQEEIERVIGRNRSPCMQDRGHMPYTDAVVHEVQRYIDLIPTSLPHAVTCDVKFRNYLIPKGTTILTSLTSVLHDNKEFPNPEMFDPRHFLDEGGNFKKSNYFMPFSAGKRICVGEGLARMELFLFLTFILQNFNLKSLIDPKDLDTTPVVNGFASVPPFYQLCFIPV

| Compound | activity at 30 min (CYP2B6) | activity at 30 min (CYP2C19) | activity at 30 min (CYP2C9) | activity at 30 min (CYP2A6) | Residual activity (%) CYP1A2 (CYP1A2; phenacetin 40 μM, 30 min) | Residual activity (%) CYP2D6 (CYP2D6) | AUM (in vivo; male, SD, in vivo) | Cl_F_ (in vivo; male, SD, in vivo) | AUC(0-inf) (in vivo; male, SD, in vivo, po) | AUC(0-t) (in vivo; male, SD, in vivo, po) | Cmax (in vivo; male, SD, in vivo, po) | Tmax (in vivo; male, SD, in vivo, po) | Vz_F (in vivo; male, SD, in vivo, po) | also measured |
| --- | --- | --- | --- | --- | --- | --- | --- | --- | --- | --- | --- | --- | --- | --- |
| CC(CC(=O)CC(C)C1CC(O)C2(C)C3=C(C(=O)CC12C)C1(C)CCC(=O)C(C)(C)C1CC3=O)C(=O)O (centres unmarked) [Compound 45] | 83 ± 3.05% | 70.3 ± 4.05% | 73.5 ± 6.44% | 90.1 ± 2.87% | – | – | – | – | – | – | – | – | – | IC50 (CYP1A2; IC50 against CYP 1A2, substrate phenacetin 40 μM, HLM): 18.2 ± 1.33 µM; activity at 30 min (CYP1A2; human, human liver microsomes, pH 7.4, probe phenacetin 40 μM, Residual activity (%) CYP1A2, HLM 0.5 mg/mL, phenacetin 40 μM, 30 min): 48.2 ± 4.71%; activity at 30 min (CYP2D6; human, human liver microsomes, pH 7.4, probe dextromethorphan 5 μM, Residual activity (%) CYP2D6, HLM 0.5 mg/mL): 93.7 ± 8.49% |
| CC(CC(=O)CC(C)C1CC(=O)C2(C)C3=C(C(=O)CC12C)C1(C)CCC(O)C(C)(C)C1CC3=O)C(=O)O (centres unmarked) [Compound 54] | 84.1 ± 1.32% | 88.3 ± 3.63% | 88.45 ± 0.51% | 82.6 ± 2.79% | 47.09±3.09% | 108.69±3.90% | – | – | – | – | – | – | – | IC50 at 30 min (CYP1A2; human, human liver microsomes, pH 7.4, probe phenacetin 40 μM, IC50 against CYP 1A2, substrate phenacetin 40 μM, HLM): 24.7 ± 3.38 µM |
| CC(CC(=O)CC(C)C1CC(=O)C2(C)C3=C(C(=O)CC12C)C1(C)CCC(O)C(C)(C)C1CC3=O)C(=O)O (centres unmarked) [Compound 55] | – | – | – | – | 71.10±3.67% | 86.79±5.16% | – | – | – | – | – | – | – | Residual activity (%) CYP2B6 (CYP2B6; HLM 0.5 mg/mL): 77.81±6.09%; Residual activity (%) CYP2C19 (CYP2C19; HLM 0.5 mg/mL): 104.32±8.04%; Residual activity (%) CYP2C9 (CYP2C9; HLM 0.5 mg/mL): 96.25±6.96%; Residual activity (%) CYP2A6 (CYP2A6; HLM 0.5 mg/mL, coumarin 2 μM, 30 min): 74.81±0.70% |
| O=C(O)Cc1ccccc1Nc1c(Cl)cccc1Cl [Dic, diclofenac] | – | – | – | – | – | – | 7,332.465 ± 1,560.101 h*ng/mL | 4,276.363 ± 388.068 mL/h/kg | 2350 ng·h/mL | 2270 ng·h/mL | 912 ± 68.1 ng/mL | 17.5 ± 6.12 min | 12,244.920 ± 1707.693 mL/kg | – |
| Cc1ncc2n1-c1ccc(Cl)cc1C(c1ccccc1F)=NC2 [MDZ, midazolam] | – | – | – | – | – | – | – | – | 2340 ng·h/mL | 2300 ng·h/mL | 1630 ng/mL | 40 ± 7.74 min | – | AUM (in vivo; [1]): 4,197.381 ± 670.735 h*ng/mL; Cl_F_ (in vivo; [1]): 4,313.217 ± 497.661 mL/h/kg; Vz_F (in vivo; [1]): 8,995.776 ± 2,395.823 mL/kg |
| CCOc1ccc(NC(C)=O)cc1 [PHE, Phenacetin] | – | – | – | – | – | – | 692.744 ± 85.4782 ng·h/mL | 14,264.696 ± 912.942 mL/h/kg | 352 ± 22.6 ng·h/mL | 342 ± 22.6 ng·h/mL | 364 ± 38.1 ng/mL | 37.5 ± 8.22 min | 31,514.554 ± 6,298.860 mL/kg | – |
